Data published in patent US20260297085A1, “1 H-PYRROLO[2,3-B]PYRIDIN-4-YL]-2-OXOPYRROLIDINE-3-CARBONITRILE DERIVATIVES AS TYROSINE KINASE 2 (TYK2) INHIBITORS FOR THE TREATMENT OF INFLAMMATORY DISEASES” (BIOGEN MA INC., priority 2023, published 2026).
Counter-ions that a name gives are not always drawn.

Legend:
[1] = biological target: T1, human TYK2 kinase domain (JH1) (Homo sapiens, UniProt P29597); experiment: JH1 biochemical assay for TYK2 (ADP-Glo kinase assay, recombinant JH1 catalytic domain, JAK3-974 peptide, 10 μM ATP)
T1 construct: recombinantly generated catalytic kinase (also known as JH1) domain of human JAK1, JAK2, JAK3 and TYK2
T1 sequence (P29597 897-1176 limits assumed): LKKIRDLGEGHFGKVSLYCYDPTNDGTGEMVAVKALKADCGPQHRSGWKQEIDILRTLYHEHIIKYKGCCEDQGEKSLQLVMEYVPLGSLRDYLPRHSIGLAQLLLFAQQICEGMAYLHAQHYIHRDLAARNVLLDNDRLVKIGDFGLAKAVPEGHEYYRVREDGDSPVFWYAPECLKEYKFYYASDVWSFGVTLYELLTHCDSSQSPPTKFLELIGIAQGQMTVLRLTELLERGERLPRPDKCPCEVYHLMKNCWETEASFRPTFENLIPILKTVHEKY
In short: (§1)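 ADP-Glo luminescence with 50 μM peptide and 100 min reactions: JAK1 4 nM with JAK3-342 peptide; JAK2, JAK3 and TYK2 at 0.2, 0.3 and 2 nM with JAK3-974 peptide. Compounds tested from 10 or 1 μM top, 11 points, 3-fold. IC50 from a 4-parameter logistic fit of normalized activity.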

[2] = biological target: T2, human JAK2 kinase domain (JH1) (Homo sapiens, UniProt O60674); experiment: JH1 biochemical assay for JAK2 (ADP-Glo kinase assay, recombinant JH1 catalytic domain, JAK3-974 peptide, 15 μM ATP)
T2 construct: recombinantly generated catalytic kinase (also known as JH1) domain of human JAK1, JAK2, JAK3 and TYK2
T2 sequence (O60674 849-1124 limits assumed): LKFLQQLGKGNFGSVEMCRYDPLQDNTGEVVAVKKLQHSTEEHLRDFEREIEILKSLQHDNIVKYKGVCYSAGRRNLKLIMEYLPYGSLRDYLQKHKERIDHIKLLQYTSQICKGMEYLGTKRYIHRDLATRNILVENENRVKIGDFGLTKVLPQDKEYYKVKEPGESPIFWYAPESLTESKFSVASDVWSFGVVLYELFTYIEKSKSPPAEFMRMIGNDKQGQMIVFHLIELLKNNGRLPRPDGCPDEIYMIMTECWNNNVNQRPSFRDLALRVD
In short: as §1

[3] = biological target: Tyk2 kinase activity on STAT4 in NK92 cells (Homo sapiens, UniProt P29597); experiment: pSTAT4 cell assay (MSD; NK92 cells, 30 ng/mL IL2 stimulation); format: cell-based; conditions: 30 ng/mL IL2, 15 minutes
Chain of Tyk2 kinase activity on STAT4 in NK92 cells (P29597 whole entry): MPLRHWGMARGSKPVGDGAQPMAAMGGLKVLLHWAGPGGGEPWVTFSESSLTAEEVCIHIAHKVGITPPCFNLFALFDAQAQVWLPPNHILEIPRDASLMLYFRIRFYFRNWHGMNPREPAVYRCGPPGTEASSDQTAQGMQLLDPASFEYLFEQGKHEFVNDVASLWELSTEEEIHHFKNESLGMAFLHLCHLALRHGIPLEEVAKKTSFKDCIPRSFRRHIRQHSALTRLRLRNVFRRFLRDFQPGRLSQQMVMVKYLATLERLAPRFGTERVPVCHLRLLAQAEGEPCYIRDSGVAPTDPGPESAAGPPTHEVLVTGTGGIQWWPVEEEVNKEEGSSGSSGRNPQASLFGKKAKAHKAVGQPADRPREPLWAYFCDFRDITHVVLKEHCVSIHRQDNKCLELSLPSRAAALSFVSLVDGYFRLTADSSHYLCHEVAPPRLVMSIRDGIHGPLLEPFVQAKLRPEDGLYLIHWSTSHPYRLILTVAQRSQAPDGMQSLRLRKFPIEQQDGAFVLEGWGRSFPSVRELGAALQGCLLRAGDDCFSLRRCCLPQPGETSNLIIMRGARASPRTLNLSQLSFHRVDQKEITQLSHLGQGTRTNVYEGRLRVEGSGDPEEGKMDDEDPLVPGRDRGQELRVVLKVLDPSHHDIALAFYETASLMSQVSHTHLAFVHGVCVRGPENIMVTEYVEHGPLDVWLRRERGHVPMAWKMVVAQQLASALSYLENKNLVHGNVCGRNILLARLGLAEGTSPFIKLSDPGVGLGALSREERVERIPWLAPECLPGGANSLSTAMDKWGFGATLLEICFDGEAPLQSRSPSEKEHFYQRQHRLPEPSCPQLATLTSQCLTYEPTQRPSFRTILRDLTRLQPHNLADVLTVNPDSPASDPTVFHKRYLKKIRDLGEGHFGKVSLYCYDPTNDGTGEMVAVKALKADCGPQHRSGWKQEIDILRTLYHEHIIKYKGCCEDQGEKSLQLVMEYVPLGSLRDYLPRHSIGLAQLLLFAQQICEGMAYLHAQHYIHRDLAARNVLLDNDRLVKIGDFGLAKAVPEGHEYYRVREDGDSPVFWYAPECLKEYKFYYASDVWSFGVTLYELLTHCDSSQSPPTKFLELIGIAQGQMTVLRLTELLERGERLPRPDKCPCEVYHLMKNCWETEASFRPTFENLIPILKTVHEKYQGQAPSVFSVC
In short: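 Read-out: phospho-STAT in NK92 lysates, MSD format, anti-STAT4 antibodies. Cells were serum-starved, given compound for 1 hr (10 μM top, four-fold, 10 points) and IL2-stimulated (30 ng/mL, 15 min). Normalized percent activity vs log concentration, 4-parameter logistic fit gave IC50.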

[4] = biological target: JAK1 kinase activity on STAT3 in TF1 cells (Homo sapiens, UniProt P23458); experiment: pSTAT3 cell assay (MSD; TF1 cells, 30 ng/mL IL-6 stimulation); format: cell-based; conditions: 30 ng/mL IL-6, 15 minutes
Chain of JAK1 kinase activity on STAT3 in TF1 cells (P23458 whole entry): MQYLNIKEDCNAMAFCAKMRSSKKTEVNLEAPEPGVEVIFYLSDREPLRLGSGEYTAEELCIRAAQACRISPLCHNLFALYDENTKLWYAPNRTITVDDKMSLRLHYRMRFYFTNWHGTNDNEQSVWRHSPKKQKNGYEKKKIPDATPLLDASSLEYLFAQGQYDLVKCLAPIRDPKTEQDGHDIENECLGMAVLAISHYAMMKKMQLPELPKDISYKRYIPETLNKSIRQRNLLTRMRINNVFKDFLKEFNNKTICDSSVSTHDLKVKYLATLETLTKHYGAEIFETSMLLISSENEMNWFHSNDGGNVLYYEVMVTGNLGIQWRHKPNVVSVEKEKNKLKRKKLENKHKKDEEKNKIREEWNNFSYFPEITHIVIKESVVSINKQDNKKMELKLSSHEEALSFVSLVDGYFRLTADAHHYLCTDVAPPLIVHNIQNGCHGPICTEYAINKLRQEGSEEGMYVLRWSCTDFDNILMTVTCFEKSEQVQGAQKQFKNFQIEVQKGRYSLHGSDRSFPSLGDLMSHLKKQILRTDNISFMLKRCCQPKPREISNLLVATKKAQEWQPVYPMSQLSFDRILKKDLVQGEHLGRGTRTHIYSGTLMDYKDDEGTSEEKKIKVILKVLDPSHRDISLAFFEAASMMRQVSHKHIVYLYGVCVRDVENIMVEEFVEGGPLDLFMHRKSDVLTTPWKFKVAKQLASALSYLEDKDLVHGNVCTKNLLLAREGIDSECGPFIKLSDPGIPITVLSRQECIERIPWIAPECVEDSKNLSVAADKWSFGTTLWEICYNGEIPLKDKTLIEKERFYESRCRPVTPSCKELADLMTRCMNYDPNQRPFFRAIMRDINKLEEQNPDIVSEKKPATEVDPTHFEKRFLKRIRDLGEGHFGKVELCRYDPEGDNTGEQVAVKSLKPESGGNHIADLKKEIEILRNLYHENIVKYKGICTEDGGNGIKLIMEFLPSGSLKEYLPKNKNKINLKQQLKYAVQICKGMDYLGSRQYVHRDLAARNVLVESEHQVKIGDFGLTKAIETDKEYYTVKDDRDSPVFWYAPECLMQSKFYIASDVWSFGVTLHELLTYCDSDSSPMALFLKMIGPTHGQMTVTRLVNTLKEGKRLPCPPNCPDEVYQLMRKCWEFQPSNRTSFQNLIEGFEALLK
In short: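 IC50 values derive from 4-parameter logistic fits of normalized pSTAT3 signal, measured by MSD with anti-STAT3 antibodies. TF1 cells, serum-starved beforehand, received compound for 1 hour (top concentration 10 μM, four-fold steps, 10 points) before a 15-minute IL-6 (30 ng/mL) stimulus.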

[5] = biological target: JAK2 kinase activity on STAT5 in TF1 cells (Homo sapiens, UniProt O60674); experiment: pSTAT5 cell assay (MSD; TF1 cells, 30 ng/mL IL-3 stimulation); format: cell-based; conditions: 30 ng/mL IL-3, 15 minutes
Chain of JAK2 kinase activity on STAT5 in TF1 cells (O60674 whole entry): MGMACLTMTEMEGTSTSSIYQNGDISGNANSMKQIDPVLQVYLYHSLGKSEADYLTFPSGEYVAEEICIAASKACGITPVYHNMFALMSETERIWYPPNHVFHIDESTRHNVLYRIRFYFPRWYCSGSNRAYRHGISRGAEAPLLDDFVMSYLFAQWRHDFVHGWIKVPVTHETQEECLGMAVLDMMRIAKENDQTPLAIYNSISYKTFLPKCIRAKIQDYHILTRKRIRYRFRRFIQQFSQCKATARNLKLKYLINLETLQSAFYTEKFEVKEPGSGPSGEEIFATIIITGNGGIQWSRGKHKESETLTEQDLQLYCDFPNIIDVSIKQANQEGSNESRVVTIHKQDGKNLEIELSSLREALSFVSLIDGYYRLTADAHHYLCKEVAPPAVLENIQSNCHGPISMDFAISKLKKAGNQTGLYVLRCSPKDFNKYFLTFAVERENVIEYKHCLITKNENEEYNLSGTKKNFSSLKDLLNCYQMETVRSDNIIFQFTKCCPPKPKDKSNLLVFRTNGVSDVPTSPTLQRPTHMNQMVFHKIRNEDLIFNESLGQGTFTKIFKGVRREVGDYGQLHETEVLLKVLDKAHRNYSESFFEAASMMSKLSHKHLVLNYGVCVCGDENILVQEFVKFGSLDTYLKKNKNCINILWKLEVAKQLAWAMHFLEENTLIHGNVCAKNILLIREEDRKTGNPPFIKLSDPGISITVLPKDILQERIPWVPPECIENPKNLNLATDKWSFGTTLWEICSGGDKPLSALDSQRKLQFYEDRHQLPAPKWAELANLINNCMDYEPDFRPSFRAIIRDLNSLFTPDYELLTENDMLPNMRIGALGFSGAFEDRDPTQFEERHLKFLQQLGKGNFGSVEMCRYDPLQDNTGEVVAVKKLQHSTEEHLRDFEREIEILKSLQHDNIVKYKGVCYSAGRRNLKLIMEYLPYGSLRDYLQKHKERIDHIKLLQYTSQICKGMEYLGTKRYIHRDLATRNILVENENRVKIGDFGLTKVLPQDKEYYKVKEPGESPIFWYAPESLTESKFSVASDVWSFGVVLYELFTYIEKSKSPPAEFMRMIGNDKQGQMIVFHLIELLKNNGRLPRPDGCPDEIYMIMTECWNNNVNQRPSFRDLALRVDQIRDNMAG
In short: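 IC50 from a 4-parameter logistic fit of normalized pSTAT5 signal, measured by MSD in lysates of TF1 cells. Cells were serum-starved, exposed to compound for 1 h (top concentration 10 μM, four-fold, 10 points), then given IL-3 at 30 ng/mL for 15 min.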

[6] = biological target: T3, human JAK3 kinase domain (JH1) (Homo sapiens, UniProt P52333); experiment: JH1 biochemical assay for JAK3 (ADP-Glo kinase assay, recombinant JH1 catalytic domain, JAK3-974 peptide, 4 μM ATP)
T3 construct: recombinantly generated catalytic kinase (also known as JH1) domain of human JAK1, JAK2, JAK3 and TYK2
T3 sequence (P52333 822-1111 limits assumed): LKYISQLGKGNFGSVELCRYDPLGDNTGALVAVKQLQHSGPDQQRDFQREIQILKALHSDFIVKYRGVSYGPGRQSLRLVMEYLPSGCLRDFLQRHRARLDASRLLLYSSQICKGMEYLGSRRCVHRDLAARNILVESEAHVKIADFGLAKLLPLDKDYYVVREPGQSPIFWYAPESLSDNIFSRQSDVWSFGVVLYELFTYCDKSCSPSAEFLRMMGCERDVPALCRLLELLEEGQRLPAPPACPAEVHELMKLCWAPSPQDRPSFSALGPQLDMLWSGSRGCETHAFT
In short: as §1

[7] = biological target: T4, human JAK1 kinase domain (JH1) (Homo sapiens, UniProt P23458); experiment: JH1 biochemical assay for JAK1 (ADP-Glo kinase assay, recombinant JH1 catalytic domain, JAK3-342 peptide, 35 μM ATP)
T4 construct: recombinantly generated catalytic kinase (also known as JH1) domain of human JAK1, JAK2, JAK3 and TYK2
T4 sequence (P23458 875-1153 limits assumed): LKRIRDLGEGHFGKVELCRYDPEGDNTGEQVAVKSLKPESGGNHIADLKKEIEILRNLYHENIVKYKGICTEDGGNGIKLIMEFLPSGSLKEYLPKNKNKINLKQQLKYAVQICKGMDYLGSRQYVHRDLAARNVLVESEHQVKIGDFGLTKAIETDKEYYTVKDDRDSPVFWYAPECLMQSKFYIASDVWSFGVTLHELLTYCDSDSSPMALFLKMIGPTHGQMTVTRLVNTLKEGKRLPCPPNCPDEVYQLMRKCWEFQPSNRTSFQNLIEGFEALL
In short: as §1

IC50 ([1]; TYK2 JH1, ADP-Glo)	IC50 ([2]; JAK2 JH1, ADP-Glo)	IC50 [3]	IC50 [4]	IC50 [5]	IC50 ([6]; JAK3 JH1, ADP-Glo)	IC50 ([7]; JAK1 JH1, ADP-Glo)	IC50 ([1]; JH1 kinase domain, ADP-Glo)	IC50 ([2]; JH1 kinase domain, ADP-Glo)	IC50 ([6]; JH1 kinase domain, ADP-Glo)	IC50 ([7]; JH1 kinase domain, ADP-Glo)	SMILES
< 5 nM	< 100 nM	20 to 50 nM	100 to 1000 nM	100 to 1000 nM	< 100 nM	< 100 nM	–	–	–	–	C[C@@H]1CN(c2nc(-c3cnn(-c4cccnc4)c3)cn3nccc23)C(=O)[C@]1(C#N)C1CC1 [Example 294, (3R,4S)-3-cyclopropyl-4-methyl-2-oxo-1-(6-(1-(pyridin-3-yl)-1H-pyrazol-4-yl)pyrazolo[1,5-a]pyrazin-4-yl)pyrrolidine-3-carbonitrile]
–	–	> 100 nM	1000 to 5000 nM	5000 to 10000 nM	–	–	5 to 20 nM	100 to 1000 nM	< 100 nM	< 100 nM	Cc1nc(C)c(-c2cn3nccc3c(N3C[C@@H](C)[C@@](C#N)(C4CC4)C3=O)n2)s1 [Example 209, (3R,4S)-3-cyclopropyl-1-(6-(2,4-dimethylthiazol-5-yl)pyrazolo[1,5-a]pyrazin-4-yl)-4-methyl-2-oxopyrrolidine-3-carbonitrile]
5 to 20 nM	100 to 1000 nM	> 100 nM	1000 to 5000 nM	5000 to 10000 nM	100 to 1000 nM	100 to 1000 nM	–	–	–	–	Cc1cn(-c2cc3c(N4C[C@@H](C)[C@@](C#N)(C5CC5)C4=O)ccnn3c2)cn1 [Example 341, (3R,4S)-3-cyclopropyl-4-methyl-1-(6-(4-methyl-1H-imidazol-1-yl)pyrrolo[1,2-b]pyridazin-4-yl)-2-oxopyrrolidine-3-carbonitrile]
< 5 nM	< 100 nM	50 to 100 nM	100 to 1000 nM	100 to 1000 nM	< 100 nM	< 100 nM	–	–	–	–	C[C@@H]1CN(c2nc(-c3cnn(C4CCCCC4)c3)cn3ncc(F)c23)C(=O)[C@]1(C#N)C1CC1 [Example 219, (3R,4S)-1-(6-(1-cyclohexyl-1H-pyrazol-4-yl)-3-fluoropyrazolo[1,5-a]pyrazin-4-yl)-3-cyclopropyl-4-methyl-2-oxopyrrolidine-3-carbonitrile]
< 5 nM	100 to 1000 nM	> 100 nM	5000 to 10000 nM	5000 to 10000 nM	100 to 1000 nM	100 to 1000 nM	–	–	–	–	C[C@@H]1CN(c2nn(-c3cnn(C4COC4)c3)c3cnccc23)C(=O)[C@]1(C#N)C1CC1 [Example 278, (3R,4S)-3-cyclopropyl-4-methyl-1-(1-(1-(oxetan-3-yl)-1H-pyrazol-4-yl)-1H-pyrazolo[3,4-c]pyridin-3-yl)-2-oxopyrrolidine-3-carbonitrile]
< 5 nM	< 100 nM	50 to 100 nM	1000 to 5000 nM	1000 to 5000 nM	< 100 nM	100 to 1000 nM	–	–	–	–	C[C@@H]1CN(c2ccnn3cc(-c4cnn(C56CC(C#N)(C5)C6)c4)cc23)C(=O)[C@]1(C#N)C1CC1 [Example 320, (3R,4S)-1-(6-(1-(3-cyanobicyclo[1.1.1]pentan-1-yl)-1H-pyrazol-4-yl)pyrrolo[1,2-b]pyridazin-4-yl)-3-cyclopropyl-4-methyl-2-oxopyrrolidine-3-carbonitrile]
5 to 20 nM	100 to 1000 nM	50 to 100 nM	1000 to 5000 nM	> 10000 nM	100 to 1000 nM	100 to 1000 nM	–	–	–	–	C[C@@H]1CN(c2ccnc3cc(-c4cnn(C)c4)oc23)C(=O)[C@]1(C#N)C1CC1 [Example 268, (3R,4S)-3-cyclopropyl-4-methyl-1-(2-(1-methyl-1H-pyrazol-4-yl)furo[3,2-b]pyridin-7-yl)-2-oxopyrrolidine-3-carbonitrile]

More lines, now with the values behind:

SMILES	IC50 ([1]; TYK2 JH1, ADP-Glo)	IC50 ([2]; JAK2 JH1, ADP-Glo)	IC50 [3]	IC50 [4]	IC50 [5]	IC50 ([6]; JAK3 JH1, ADP-Glo)	IC50 ([7]; JAK1 JH1, ADP-Glo)	IC50 ([1]; JH1 kinase domain, ADP-Glo)	IC50 ([2]; JH1 kinase domain, ADP-Glo)	IC50 ([6]; JH1 kinase domain, ADP-Glo)	IC50 ([7]; JH1 kinase domain, ADP-Glo)
C[C@@H]1CN(c2nc(-c3cnn([C@H]4CCOC4)c3)cn3ncc(F)c23)C(=O)[C@]1(C#N)C1CC1 [Example 191, (3R,4S)-3-cyclopropyl-1-(3-fluoro-6-(1-((S)-tetrahydrofuran-3-yl)-1H-pyrazol-4-yl)pyrazolo[1,5-a]pyrazin-4-yl)-4-methyl-2-oxopyrrolidine-3-carbonitrile]	–	–	50 to 100 nM	1000 to 5000 nM	1000 to 5000 nM	–	–	< 5 nM	< 100 nM	< 100 nM	< 100 nM
C[C@@H]1CN(c2ccnn3cc(-c4ccnc(C#N)c4)cc23)C(=O)[C@]1(C#N)C1CC1 [Example 93, 4-(4-((3R,4S)-3-cyano-3-cyclopropyl-4-methyl-2-oxopyrrolidin-1-yl)pyrrolo[1,2-b]pyridazin-6-yl)picolinonitrile]	–	–	> 100 nM	5000 to 10000 nM	> 10000 nM	–	–	5 to 20 nM	100 to 1000 nM	100 to 1000 nM	100 to 1000 nM
C[C@@H]1CN(c2ccnn3cc(-c4ccnc(C(F)(F)F)c4)cc23)C(=O)[C@]1(C#N)C1CC1 [Example 69, (3R,4S)-3-cyclopropyl-4-methyl-2-oxo-1-(6-(2-(trifluoromethyl)pyridin-4-yl)pyrrolo[1,2-b]pyridazin-4-yl)pyrrolidine-3-carbonitrile]	–	–	> 100 nM	5000 to 10000 nM	> 10000 nM	–	–	5 to 20 nM	1000 to 5000 nM	100 to 1000 nM	100 to 1000 nM
C[C@@H]1CN(c2ccnn3cc(-c4ccc5nccn5c4)cc23)C(=O)[C@]1(C#N)C1CC1 [Example 88, (3R,4S)-3-cyclopropyl-1-(6-(imidazo[1,2-a]pyridin-6-yl)pyrrolo[1,2-b]pyridazin-4-yl)-4-methyl-2-oxopyrrolidine-3-carbonitrile]	–	–	20 to 50 nM	100 to 1000 nM	1000 to 5000 nM	–	–	< 5 nM	100 to 1000 nM	100 to 1000 nM	< 100 nM
C[C@@H]1CN(c2ccnn3cc(-c4cc5ccccn5n4)cc23)C(=O)[C@]1(C#N)C1CC1 [Example 104, (3R,4S)-3-cyclopropyl-4-methyl-2-oxo-1-(6-(pyrazolo[1,5-a]pyridin-2-yl)pyrrolo[1,2-b]pyridazin-4-yl)pyrrolidine-3-carbonitrile trifluoroacetate]	–	–	> 100 nM	1000 to 5000 nM	5000 to 10000 nM	–	–	< 5 nM	100 to 1000 nM	100 to 1000 nM	100 to 1000 nM
C[C@@H]1CN(c2ccnn3cc(-c4ccc(OC(F)F)nc4)cc23)C(=O)[C@]1(C#N)C1CC1 [Example 176, (3R,4S)-3-cyclopropyl-1-(6-(6-(difluoromethoxy)pyridin-3-yl)pyrrolo[1,2-b]pyridazin-4-yl)-4-methyl-2-oxopyrrolidine-3-carbonitrile]	–	–	> 100 nM	5000 to 10000 nM	> 10000 nM	–	–	5 to 20 nM	1000 to 5000 nM	100 to 1000 nM	100 to 1000 nM
